In ChEMBL document CHEMBL1201862, “PubChem BioAssay data set” (2004):
Calls of active or inactive are those of the source.

Tests used:
[1] = molecular target: T1, Leucine aminopeptidase (Plasmodium falciparum 3D7, UniProt Q8IL11); test: P. falciparum M17LAP inhibitors, primary screen, biochemical, fluorogenic H-Leu-NHMec substrate, 1536-well (AID 1619); assay type: functional
T1 sequence (Q8IL11 whole entry): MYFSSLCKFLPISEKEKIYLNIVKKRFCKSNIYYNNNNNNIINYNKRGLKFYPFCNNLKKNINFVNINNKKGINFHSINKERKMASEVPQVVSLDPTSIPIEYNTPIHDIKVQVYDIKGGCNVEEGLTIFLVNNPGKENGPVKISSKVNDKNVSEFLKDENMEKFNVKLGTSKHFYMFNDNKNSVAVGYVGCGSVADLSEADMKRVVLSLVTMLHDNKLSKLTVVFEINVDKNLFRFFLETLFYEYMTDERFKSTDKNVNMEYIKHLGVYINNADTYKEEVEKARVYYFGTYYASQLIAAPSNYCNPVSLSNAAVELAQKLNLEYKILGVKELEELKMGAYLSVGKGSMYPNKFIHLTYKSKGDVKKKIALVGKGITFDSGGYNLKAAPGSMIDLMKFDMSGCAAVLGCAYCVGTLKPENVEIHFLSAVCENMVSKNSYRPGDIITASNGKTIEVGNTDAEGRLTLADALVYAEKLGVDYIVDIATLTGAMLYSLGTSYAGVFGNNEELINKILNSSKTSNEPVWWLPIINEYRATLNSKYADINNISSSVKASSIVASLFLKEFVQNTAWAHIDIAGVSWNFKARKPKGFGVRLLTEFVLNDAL

[2] = molecular target: T2, RNA-binding protein pos-1 (Caenorhabditis elegans, UniProt G5EF15); test: disruptors of C. elegans POS-1 RNA interaction – biochemical, fluorescence polarization, dose response (AID 1964);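 also: purified POS-1 fused to maltose binding protein made in E. coli; potency of compounds blocking POS-1 binding to fluorescent RNA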
T2 sequence (G5EF15 whole entry): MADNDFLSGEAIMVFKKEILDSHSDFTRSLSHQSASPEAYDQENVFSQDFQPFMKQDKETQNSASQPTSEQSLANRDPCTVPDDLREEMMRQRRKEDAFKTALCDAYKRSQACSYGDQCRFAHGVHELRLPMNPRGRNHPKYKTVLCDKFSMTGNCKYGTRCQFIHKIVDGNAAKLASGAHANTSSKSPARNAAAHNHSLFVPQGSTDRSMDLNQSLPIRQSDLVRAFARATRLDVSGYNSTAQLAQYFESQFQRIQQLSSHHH

[3] = molecular target: T3, Zinc finger protein mex-5 (Caenorhabditis elegans, UniProt Q9XUB2); test: potency of MEX-5 RNA-binding blockers – biochemical, C. elegans, fluorescence polarization, dose response (AID 1960)
T3 sequence (Q9XUB2 whole entry): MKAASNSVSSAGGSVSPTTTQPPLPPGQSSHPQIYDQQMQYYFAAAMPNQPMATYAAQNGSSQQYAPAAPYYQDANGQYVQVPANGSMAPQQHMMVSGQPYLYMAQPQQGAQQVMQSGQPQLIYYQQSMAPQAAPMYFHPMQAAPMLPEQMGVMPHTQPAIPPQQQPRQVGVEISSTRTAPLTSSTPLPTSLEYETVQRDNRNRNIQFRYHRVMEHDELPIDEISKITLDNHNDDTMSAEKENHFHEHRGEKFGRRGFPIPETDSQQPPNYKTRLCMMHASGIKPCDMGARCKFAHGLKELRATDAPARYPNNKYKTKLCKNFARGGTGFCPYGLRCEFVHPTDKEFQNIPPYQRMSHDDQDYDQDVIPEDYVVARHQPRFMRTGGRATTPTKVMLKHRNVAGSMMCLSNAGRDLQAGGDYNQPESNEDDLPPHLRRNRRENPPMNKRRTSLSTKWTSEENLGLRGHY

[4] = molecular target: ORF 73 (Human herpesvirus 8, UniProt O40947); test: KSHV LANA DNA-binding disruption – biochemical, fluorescence polarization, cherry-picked samples, dose response (AID 504725); design: species or system Human gammaherpesvirus 8;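 also: fluorescence polarization of a labeled DNA duplex reporting LANA DNA binding; potency is for inhibitors that block LANA binding to the DNA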
Chain of ORF 73 (O40947 whole entry): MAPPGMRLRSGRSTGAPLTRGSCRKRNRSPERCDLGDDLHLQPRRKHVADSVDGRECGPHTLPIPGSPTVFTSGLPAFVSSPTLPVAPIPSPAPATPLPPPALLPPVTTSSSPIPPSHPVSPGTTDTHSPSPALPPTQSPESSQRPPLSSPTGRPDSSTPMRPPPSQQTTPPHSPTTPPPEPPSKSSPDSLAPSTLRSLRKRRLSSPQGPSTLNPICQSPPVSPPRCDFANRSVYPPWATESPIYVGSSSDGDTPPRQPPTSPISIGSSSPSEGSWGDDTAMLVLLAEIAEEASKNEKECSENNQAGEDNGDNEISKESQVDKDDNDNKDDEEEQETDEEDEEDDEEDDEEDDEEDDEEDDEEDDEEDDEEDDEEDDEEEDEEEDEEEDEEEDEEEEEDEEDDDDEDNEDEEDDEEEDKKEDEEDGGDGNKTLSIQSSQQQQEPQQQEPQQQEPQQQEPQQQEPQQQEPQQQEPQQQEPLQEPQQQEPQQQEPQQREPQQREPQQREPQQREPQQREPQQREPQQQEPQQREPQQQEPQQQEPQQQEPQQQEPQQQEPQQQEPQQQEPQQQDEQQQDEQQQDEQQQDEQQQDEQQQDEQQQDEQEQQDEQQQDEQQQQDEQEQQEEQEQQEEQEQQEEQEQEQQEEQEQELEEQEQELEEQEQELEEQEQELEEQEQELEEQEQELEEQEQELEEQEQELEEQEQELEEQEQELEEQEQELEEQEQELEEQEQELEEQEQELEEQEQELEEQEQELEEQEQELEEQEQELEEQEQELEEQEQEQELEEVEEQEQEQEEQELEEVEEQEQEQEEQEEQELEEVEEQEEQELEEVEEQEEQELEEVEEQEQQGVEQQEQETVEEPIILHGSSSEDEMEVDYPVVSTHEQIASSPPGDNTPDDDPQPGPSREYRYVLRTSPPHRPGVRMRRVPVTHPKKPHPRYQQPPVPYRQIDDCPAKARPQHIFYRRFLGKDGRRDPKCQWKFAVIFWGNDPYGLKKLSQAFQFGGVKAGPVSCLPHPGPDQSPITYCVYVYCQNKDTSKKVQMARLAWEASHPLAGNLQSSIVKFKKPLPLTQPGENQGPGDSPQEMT

[5] = molecular target: T4, Protein disulfide-isomerase (Homo sapiens, UniProt P07237); test: inhibition of PDI-driven insulin aggregation – biochemical, turbidity, absorbance, cherry-picked samples, dose response (AID 602350); assay type: functional
T4 sequence (P07237 whole entry): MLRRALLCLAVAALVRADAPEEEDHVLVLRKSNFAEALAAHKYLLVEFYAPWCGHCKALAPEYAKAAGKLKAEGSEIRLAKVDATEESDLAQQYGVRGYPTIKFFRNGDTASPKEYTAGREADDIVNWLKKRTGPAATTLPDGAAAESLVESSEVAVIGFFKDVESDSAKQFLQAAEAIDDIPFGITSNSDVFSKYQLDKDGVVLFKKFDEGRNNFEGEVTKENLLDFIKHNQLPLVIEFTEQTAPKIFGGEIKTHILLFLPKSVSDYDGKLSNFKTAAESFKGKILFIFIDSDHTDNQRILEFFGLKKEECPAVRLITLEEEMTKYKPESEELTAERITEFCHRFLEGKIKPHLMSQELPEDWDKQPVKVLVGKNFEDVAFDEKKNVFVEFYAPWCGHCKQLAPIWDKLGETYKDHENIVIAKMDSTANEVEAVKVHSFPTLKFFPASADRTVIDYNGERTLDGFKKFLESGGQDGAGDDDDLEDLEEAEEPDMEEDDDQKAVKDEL

[6] = molecular target: T4, Protein disulfide-isomerase; test: inhibition of PDI-mediated insulin reduction – biochemical, turbidity, absorbance, cherry-picked samples, set 2, dose response (AID 624274); assay type: functional
[7] = molecular target: T5, Histone-lysine N-methyltransferase NSD2 (Homo sapiens, UniProt O96028); assay type: biochemical
T5 sequence (O96028 whole entry): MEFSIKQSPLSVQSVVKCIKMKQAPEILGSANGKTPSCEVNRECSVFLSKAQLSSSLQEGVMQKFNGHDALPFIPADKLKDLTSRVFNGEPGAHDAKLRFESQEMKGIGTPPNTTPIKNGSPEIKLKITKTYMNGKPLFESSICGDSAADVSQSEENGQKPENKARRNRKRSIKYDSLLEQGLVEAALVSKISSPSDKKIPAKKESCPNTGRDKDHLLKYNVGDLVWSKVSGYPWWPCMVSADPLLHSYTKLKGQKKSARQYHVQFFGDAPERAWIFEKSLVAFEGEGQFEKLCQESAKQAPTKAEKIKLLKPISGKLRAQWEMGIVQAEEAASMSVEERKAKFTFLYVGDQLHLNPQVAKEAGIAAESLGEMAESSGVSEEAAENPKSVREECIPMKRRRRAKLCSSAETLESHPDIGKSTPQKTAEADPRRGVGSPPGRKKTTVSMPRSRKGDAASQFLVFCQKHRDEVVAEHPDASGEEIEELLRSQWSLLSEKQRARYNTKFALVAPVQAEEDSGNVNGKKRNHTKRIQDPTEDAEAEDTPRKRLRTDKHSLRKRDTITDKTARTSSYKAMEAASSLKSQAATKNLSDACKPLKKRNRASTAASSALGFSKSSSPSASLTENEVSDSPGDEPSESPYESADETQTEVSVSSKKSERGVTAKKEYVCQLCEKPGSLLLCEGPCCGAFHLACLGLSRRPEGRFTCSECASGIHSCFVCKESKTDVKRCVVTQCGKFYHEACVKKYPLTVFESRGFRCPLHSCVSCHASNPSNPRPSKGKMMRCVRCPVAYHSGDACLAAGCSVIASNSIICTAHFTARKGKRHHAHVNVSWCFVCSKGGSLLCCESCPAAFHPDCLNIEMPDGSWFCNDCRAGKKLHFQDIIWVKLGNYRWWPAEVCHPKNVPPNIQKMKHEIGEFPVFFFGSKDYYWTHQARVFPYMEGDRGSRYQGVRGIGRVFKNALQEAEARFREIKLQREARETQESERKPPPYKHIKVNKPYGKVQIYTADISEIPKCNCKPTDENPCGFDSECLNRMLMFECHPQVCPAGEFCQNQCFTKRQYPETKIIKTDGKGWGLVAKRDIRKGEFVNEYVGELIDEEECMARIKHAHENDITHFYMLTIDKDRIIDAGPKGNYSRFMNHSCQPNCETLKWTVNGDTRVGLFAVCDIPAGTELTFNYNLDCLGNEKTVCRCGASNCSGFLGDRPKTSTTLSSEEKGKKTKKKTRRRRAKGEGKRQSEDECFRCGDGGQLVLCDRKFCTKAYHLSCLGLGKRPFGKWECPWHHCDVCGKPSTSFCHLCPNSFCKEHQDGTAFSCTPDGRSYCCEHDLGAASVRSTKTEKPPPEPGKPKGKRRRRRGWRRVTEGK

O=C(O)CCCCCn1c(SCC(=O)c2ccc(O)c(O)c2)nc2ccsc2c1=O
active: IC50 [1] 12.8 µM | EC50 [2] 270 µM | EC50 [3] 61.6 µM | AC50 [4] 2.89 µM | AC50 [5] < 0.009 µM | AC50 [6] 0.009 µM | AC50 [7] 7.35 µM
